Reference: patent publication US20130203598A1, “USE OF PHOTOSYNTHETIC PIGMENT STABILIZING AGENTS TO REGULATE RIPENING AND QUALITY IN FRUITS AND VEGETABLES” (WASHINGTON STATE UNIVERSITY, priority 2011, published 2013)

How the values were obtained:
[1] = use on comestible substances, consumption by humans or other animals; cited from earlier work
d'Anjou pears [2] = assay: Soluble sugars (% Brix) of d'Anjou pears treated on trees before harvest, after commercial controlled atmosphere storage; assay type: in vivo, d'Anjou pear (Pyrus communis); settings: application before harvest, after CA storage (FIGS. 2 and 3)
Experimental: FIG. 2. Percent Brix of Bluestim™-treated pears after CA storage. Percent Brix were measured for all pear treatments after they were removed from the commercial CA storage conditions. FIG. 3. Fruit pressure of Bluestim™ (glycine betaine)-treated and untreated d'Anjou pears. D'Anjou pears were treated on trees with Bluestim™ concentrations of 0 and 7.5 lbs/acre before harvest. Pears were harvested during the fall and stored in commercial controlled atmosphere (CA) facilities. Pears were removed from storage approximately 3 months later. Fruit firmness and % Brix were measured approximately 1 month after removal from storage. In one embodiment, the methods of the invention are carried out before a fruit is “ripe”, i.e. before the fruit has a soluble solids content or “SSC” (which generally corresponds to sugar content) that is generally recognized in the art as suitable for a fruit of interest. […] Percent sugar content is typically measured, for example, in degrees Brix (symbol °Bx) which is the sugar content of an aqueous solution. […] Those of skill in the art will recognize that typical Brix values for fruit and vegetables to which glycine betaine is applied as described herein will vary widely depending on the type of fruit or vegetable, and will be able to readily able to determine suitable values. […]

d'Anjou pears [3] = assay: Fruit firmness (pressure) of d'Anjou pears treated on trees before harvest, after commercial controlled atmosphere storage; assay type: in vivo, d'Anjou pear (Pyrus communis)
Experimental: FIG. 1. Fruit pressure of Bluestim™ (glycine betaine)-treated and untreated d'Anjou pears. D'Anjou pears were treated on trees with Bluestim™ concentrations of 0, 2.5, 5, and 10 lbs/acre on Aug. 17, 2010. Pears were harvested on 9/20/2010 and stored in commercial controlled atmosphere (CA) facilities. Pears were removed from storage on Jan. 7, 2011.
FIG. 3. Fruit pressure of Bluestim™ (glycine betaine)-treated and untreated d'Anjou pears. D'Anjou pears were treated on trees with Bluestim™ concentrations of 0 and 7.5 lbs/acre before harvest. Pears were harvested during the fall and stored in commercial controlled atmosphere (CA) facilities. Pears were removed from storage approximately 3 months later. Fruit firmness and % Brix were measured approximately 1 month after removal from storage.
In addition, the degree of firmness and/or lack thereof may be used as an indicator of ripeness. Fruit firmness is generally measured as kg/cm^−2 and suitable ranges of firmness values for unripened and ripe fruit and vegetables are well-known to those of skill in the art. Firmness may be measured using a variety of instruments such as various fruit firmness testers, force gauges, etc.

SMILES: C[N+](C)(C)CC(=O)O [glycine betaine, N,N,N-trimethylglycine]
- toxicity [1]: non-toxic
- soluble sugars measured in % BRIX (d'Anjou pears [2]): decrease in soluble sugars measured in % BRIX in a dose dependent manner
- fruit firmness compared to untreated pears (d'Anjou pears [3]; application before harvest, 2.5, 5, 10 or 7.5 lbs/acre, same post-harvest storage conditions (FIGS. 1 and 3)): firmer pears compared to untreated pears
- fruit firmness, dose dependence (d'Anjou pears [3]; application before harvest, 10 lbs/acre is the highest dose): increased the fruit firmness in a dose dependent manner, with applications of 10 lbs/acre yielding the firmest pears
- reversibility of the effect on firmness and % BRIX as time passes (d'Anjou pears [3]; treated pears as time passes after treatment): soften and exhibit increases in % BRIX, indicating that the effect is temporary
